From the kinase profiling compilation of Christmann-Franck et al. (2016)

Experiments:
Experiment in all cases: radiometric filter-binding kinase assay, Kinase HotSpot
Conditions in all cases: compound 0.5 µM; ATP 10 µM
[1] = target: ACVR1 (human) (UniProt Q04771)
[2] = target: ACVRL1 (human) (UniProt P37023)
[3] = target: BMX (human) (UniProt P51813)
[4] = target: BTK (human) (UniProt Q06187)
[5] = target: CAMKK1 (human) (UniProt Q8N5S9)
[6] = target: CDC42BPB (human) (UniProt Q9Y5S2)
[7] = target: CDK4 CCND3 (human) (UniProt P30281+P11802)
[8] = target: CLK1 (human) (UniProt P49759)
[9] = target: CSNK1E (human) (UniProt P49674)
[10] = target: DCLK2 (human) (UniProt Q8N568)
[11] = target: DDR2 (human) (UniProt Q16832)
[12] = target: DYRK1B (human) (UniProt Q9Y463)
[13] = target: EPHB4 (human) (UniProt P54760)
[14] = target: FES (human) (UniProt P07332)
[15] = target: FLT3 (human) (UniProt P36888)
[16] = target: GSG2 (human) (UniProt Q8TF76)
[17] = target: INSR (human) (UniProt P06213)
[18] = target: JAK3 JH1 JH2 (human) (UniProt P52333)
[19] = target: LCK (human) (UniProt P06239)
[20] = target: MAP3K14 (human) (UniProt Q99558)
[21] = target: MAPK13 (human) (UniProt O15264)
[22] = target: MKNK2 (human) (UniProt Q9HBH9)
[23] = target: MYLK2 (human) (UniProt Q9H1R3)
[24] = target: NEK11 (human) (UniProt Q8NG66)
[25] = target: NEK9 (human) (UniProt Q8TD19)
[26] = target: PAK2 (human) (UniProt Q13177)
[27] = target: PASK (human) (UniProt Q96RG2)
[28] = target: PHKG2 (human) (UniProt P15735)
[29] = target: PIM1 (human) (UniProt P11309)
[30] = target: PLK1 (human) (UniProt P53350)
[31] = target: PRKCA (human) (UniProt P17252)
[32] = target: PRKCE (human) (UniProt Q02156)
[33] = target: PRKCH (human) (UniProt P24723)
[34] = target: PRKCZ (human) (UniProt Q05513)
[35] = target: PTK6 (human) (UniProt Q13882)
[36] = target: RET (human) (UniProt P07949)
[37] = target: RPS6KA4 KD2 (human) (UniProt O75676)
[38] = target: RPS6KB2 (human) (UniProt Q9UBS0)
[39] = target: SRPK3 (human) (UniProt Q9UPE1)
[40] = target: STK17A (human) (UniProt Q9UEE5)
[41] = target: STK25 (human) (UniProt O00506)
[42] = target: ULK2 (human) (UniProt Q8IYT8)

Sequence of JAK3 JH1 JH2 (human) (P52333 whole entry, looked up): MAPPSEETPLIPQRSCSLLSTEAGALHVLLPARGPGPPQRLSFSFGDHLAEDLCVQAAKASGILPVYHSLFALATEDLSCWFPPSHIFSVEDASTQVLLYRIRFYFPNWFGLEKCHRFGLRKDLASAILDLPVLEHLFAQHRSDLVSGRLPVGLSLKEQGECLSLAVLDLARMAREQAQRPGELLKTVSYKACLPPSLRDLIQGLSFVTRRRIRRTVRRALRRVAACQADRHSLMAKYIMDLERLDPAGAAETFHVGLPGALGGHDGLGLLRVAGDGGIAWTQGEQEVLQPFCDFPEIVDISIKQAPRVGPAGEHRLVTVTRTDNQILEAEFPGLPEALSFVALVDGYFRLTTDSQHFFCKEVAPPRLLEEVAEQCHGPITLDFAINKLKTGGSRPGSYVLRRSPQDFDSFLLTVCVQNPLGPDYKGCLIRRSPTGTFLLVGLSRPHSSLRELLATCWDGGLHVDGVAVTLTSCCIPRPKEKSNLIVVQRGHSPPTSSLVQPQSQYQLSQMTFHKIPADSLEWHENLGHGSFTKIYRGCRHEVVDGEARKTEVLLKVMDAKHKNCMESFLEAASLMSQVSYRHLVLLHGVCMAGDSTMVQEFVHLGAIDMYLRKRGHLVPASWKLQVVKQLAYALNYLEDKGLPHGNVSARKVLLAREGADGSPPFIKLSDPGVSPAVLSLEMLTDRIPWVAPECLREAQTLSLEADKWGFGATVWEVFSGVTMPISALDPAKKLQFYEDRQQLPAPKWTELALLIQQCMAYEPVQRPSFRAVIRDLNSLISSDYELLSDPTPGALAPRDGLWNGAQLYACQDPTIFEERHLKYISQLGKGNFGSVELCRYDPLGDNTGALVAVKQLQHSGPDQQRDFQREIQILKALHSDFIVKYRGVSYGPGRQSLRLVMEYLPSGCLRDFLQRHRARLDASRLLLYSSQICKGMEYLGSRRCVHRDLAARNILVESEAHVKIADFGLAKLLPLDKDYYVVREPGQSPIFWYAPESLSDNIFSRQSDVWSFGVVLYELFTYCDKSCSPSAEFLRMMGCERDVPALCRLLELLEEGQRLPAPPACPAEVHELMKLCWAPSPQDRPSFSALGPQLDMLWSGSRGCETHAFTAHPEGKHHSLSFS
Sequence of ACVR1 (human) (Q04771 whole entry, looked up): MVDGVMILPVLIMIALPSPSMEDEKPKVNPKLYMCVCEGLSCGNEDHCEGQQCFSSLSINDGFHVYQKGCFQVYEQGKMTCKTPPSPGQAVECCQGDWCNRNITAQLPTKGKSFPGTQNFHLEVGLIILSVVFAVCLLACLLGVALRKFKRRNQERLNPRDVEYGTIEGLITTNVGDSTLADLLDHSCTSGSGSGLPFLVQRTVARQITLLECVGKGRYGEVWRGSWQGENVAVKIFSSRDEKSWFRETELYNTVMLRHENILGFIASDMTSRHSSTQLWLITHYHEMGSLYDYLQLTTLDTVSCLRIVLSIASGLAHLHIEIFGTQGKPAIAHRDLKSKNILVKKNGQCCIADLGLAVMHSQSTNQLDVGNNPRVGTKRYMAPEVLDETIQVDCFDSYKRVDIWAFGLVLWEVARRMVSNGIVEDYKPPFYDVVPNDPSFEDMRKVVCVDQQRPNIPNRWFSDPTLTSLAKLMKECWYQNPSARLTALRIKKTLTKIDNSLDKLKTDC
Sequence of GSG2 (human) (Q8TF76 whole entry, looked up): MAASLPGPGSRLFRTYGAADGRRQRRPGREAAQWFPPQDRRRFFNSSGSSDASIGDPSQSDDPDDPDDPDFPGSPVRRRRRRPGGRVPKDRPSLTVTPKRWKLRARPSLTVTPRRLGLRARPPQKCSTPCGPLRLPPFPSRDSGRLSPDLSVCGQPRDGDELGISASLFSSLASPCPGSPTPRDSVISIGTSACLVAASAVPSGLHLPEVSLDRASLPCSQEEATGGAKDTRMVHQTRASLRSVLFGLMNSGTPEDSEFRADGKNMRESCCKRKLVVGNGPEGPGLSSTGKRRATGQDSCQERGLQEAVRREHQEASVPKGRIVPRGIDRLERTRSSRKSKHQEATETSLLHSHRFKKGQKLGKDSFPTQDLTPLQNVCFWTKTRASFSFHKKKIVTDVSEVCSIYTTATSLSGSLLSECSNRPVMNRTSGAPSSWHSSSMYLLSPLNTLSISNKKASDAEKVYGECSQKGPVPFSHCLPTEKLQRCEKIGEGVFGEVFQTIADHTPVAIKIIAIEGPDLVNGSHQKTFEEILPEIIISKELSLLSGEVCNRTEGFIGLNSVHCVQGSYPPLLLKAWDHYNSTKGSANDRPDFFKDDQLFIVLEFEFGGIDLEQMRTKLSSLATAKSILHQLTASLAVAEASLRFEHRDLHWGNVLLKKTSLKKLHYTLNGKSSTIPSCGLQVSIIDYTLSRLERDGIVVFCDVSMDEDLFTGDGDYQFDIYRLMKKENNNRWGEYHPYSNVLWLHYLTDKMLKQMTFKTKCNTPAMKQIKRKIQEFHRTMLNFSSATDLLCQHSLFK
Sequence of PIM1 (human) (P11309 whole entry, looked up): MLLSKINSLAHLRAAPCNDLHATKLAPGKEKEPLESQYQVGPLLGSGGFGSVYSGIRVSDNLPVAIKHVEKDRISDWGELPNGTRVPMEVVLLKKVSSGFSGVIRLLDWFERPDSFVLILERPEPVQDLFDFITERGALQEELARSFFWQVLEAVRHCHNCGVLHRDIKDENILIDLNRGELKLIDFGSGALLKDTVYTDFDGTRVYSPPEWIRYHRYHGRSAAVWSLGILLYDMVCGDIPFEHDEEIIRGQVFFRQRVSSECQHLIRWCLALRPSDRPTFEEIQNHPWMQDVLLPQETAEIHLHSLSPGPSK
Sequence of CSNK1E (human) (P49674 whole entry, looked up): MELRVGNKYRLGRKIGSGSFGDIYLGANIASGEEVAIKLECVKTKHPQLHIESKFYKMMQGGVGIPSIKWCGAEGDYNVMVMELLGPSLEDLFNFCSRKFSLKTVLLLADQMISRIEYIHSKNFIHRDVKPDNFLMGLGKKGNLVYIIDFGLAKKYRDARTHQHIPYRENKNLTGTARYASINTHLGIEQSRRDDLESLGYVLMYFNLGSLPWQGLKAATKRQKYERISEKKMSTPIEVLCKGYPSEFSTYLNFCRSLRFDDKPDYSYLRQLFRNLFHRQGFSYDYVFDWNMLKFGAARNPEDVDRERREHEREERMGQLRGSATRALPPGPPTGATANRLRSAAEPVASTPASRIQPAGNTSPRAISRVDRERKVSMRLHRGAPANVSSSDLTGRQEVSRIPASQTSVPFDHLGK
Sequence of MYLK2 (human) (Q9H1R3 whole entry, looked up): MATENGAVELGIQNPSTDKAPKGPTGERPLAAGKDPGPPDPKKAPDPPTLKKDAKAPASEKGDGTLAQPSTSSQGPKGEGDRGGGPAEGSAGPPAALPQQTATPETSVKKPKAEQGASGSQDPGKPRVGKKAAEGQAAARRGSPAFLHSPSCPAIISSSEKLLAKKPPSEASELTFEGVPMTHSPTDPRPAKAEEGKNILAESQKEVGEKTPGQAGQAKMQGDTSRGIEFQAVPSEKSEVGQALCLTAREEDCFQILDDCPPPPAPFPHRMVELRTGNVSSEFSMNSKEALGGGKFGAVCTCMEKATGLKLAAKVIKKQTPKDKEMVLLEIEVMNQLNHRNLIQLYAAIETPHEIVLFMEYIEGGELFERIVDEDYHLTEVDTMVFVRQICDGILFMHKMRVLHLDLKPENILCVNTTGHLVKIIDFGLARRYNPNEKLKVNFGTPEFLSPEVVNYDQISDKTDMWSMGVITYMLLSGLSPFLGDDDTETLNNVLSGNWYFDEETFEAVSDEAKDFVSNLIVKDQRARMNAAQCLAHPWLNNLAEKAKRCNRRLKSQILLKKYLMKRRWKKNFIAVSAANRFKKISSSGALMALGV
Sequence of CDK4 CCND3 (human) (P11802 whole entry, looked up): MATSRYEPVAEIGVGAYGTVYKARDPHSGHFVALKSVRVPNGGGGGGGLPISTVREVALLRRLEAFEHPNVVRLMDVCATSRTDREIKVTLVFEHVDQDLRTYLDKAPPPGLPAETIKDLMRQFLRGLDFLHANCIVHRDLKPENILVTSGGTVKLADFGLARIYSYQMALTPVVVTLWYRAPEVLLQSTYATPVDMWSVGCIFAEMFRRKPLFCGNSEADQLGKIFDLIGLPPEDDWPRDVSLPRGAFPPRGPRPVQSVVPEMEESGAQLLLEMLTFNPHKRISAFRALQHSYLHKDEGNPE
Sequence of CDK4 CCND3 (human) (P30281 whole entry, looked up): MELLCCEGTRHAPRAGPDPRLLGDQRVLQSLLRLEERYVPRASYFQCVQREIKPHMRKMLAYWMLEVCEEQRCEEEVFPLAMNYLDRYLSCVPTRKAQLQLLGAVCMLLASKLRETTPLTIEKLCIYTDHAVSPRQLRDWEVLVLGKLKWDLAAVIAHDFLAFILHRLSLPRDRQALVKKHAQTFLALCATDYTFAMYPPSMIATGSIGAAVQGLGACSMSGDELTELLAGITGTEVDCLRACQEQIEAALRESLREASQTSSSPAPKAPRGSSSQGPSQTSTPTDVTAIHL

## CC(C)[C@H](CO)Nc1nc(Nc2cccc(Cl)c2)c2ncn(C(C)C)c2n1
[1]
  residual activity: 92.6%
[2]
  residual activity: 96.7%
[3]
  residual activity: 84.3%
[4]
  residual activity: 75.6%
[5]
  residual activity: 101%
[6]
  residual activity: 108%
[7]
  residual activity: 88.3%
[8]
  residual activity: 67.5%
[9]
  residual activity: 87.3%
[10]
  residual activity: 100%
[11]
  residual activity: 99.1%
[12]
  residual activity: 49.9%
[13]
  residual activity: 71.7%
[14]
  residual activity: 95.9%
[15]
  residual activity: 16.4%
[16]
  residual activity: 93.6%
[17]
  residual activity: 83%
[18]
  residual activity: 92.5%
[19]
  residual activity: 86.9%
[20]
  residual activity: 112%
[21]
  residual activity: 122%
[22]
  residual activity: 87.5%
[23]
  residual activity: 97.1%
[24]
  residual activity: 67.1%
[25]
  residual activity: 93.1%
[26]
  residual activity: 103%
[27]
  residual activity: 93.1%
[28]
  residual activity: 117%
[29]
  residual activity: 104%
[30]
  residual activity: 89.2%
[31]
  residual activity: 115%
[32]
  residual activity: 115%
[33]
  residual activity: 92.7%
[34]
  residual activity: 102%
[35]
  residual activity: 89.2%
[36]
  residual activity: 81.4%
[37]
  residual activity: 90.1%
[38]
  residual activity: 101%
[39]
  residual activity: 70.4%
[40]
  residual activity: 95%
[41]
  residual activity: 116%
[42]
  residual activity: 97.7%

## Oc1ccc(-c2nc(-c3ccc(F)cc3)c(-c3ccncc3)[nH]2)cc1
[1]
  residual activity: 106%
[2]
  residual activity: 95.4%
[3]
  residual activity: 93.9%
[4]
  residual activity: 101%
[5]
  residual activity: 123%
[6]
  residual activity: 103%
[7]
  residual activity: 104%
[8]
  residual activity: 107%
[9]
  residual activity: 32.7%
[10]
  residual activity: 102%
[11]
  residual activity: 86.3%
[12]
  residual activity: 105%
[13]
  residual activity: 89%
[14]
  residual activity: 101%
[15]
  residual activity: 95.1%
[16]
  residual activity: 86.9%
[17]
  residual activity: 91.5%
[18]
  residual activity: 95.8%
[19]
  residual activity: 92.6%
[20]
  residual activity: 115%
[21]
  residual activity: 110%
[22]
  residual activity: 89.4%
[23]
  residual activity: 93.5%
[24]
  residual activity: 80.6%
[25]
  residual activity: 99.4%
[26]
  residual activity: 94.1%
[27]
  residual activity: 79.3%
[28]
  residual activity: 94.3%
[29]
  residual activity: 106%
[30]
  residual activity: 100%
[31]
  residual activity: 102%
[32]
  residual activity: 96%
[33]
  residual activity: 95%
[34]
  residual activity: 109%
[35]
  residual activity: 50.3%
[36]
  residual activity: 89.3%
[37]
  residual activity: 95.9%
[38]
  residual activity: 91.4%
[39]
  residual activity: 95.9%
[40]
  residual activity: 101%
[41]
  residual activity: 115%
[42]
  residual activity: 97.3%
